According to patent publication US7528107B2, “Methods of treating inflammation in mammalian tissues comprising administering human alpha-defensins” (Auburn University, priority 2005, dated 2009):
“Also recorded” adds a separate entry of the source.

How the values were obtained:
Type in all cases: cell-based
[1] = test system: IL-1β release from human monocytes; assay: ATP mediated proIL-1β / mature IL-1β release from LPS-activated human monocytes (FIG. 2, FIG. 3); conditions: for processing of proIL-1β after it is released extracellularly: LPS-activated human monocytes treated with ATP, then α-defensins; for ATP-mediated IL-1β release from human monocytes: summary statement
Method: (§1) Lipopolysaccharide (LPS) activated, ^35S-methionine-labeled human monocytes treated with human α-defensins HNP-1 or HD-5 in the presence and absence of ATP were examined. Media and cell-associated fractions were harvested separately and IL-1β was recovered from each by immunoprecipitation. The resulting immuno-precipitates were analyzed by SDS-PAGE and autoradiography. Referring now to FIG. 2, in the absence of ATP, LPS activated monocytes released about 10% of ^35S-methionine-labeled proIL-1β (31 kDa) into the media, but no mature (17 kDa) IL-1β was detected. As expected, addition of ATP to the LPS-activated monocyte culture led to the release of 90% of newly synthesized proIL-1β from the cell and more than 90% of the proIL-1β was processed to mature IL-1β and detected in the media.
(§2) Peripheral blood monocytes where isolated from healthy volunteers and patients with inflammatory bowel disease and suspended in monocyte maintenance medium (RPMI 1640 medium, 5% FBS 25 mM HEPES and 1% Pen/Strep). Blood samples from healthy volunteers were collected at the Auburn University Medical Clinic under an approved protocol. Blood samples from inflammatory bowel disease patients were provided by Dr. W. Park McGehee of Internal Medicine Associates of Opelika, Ala., U.S.A.
(§3) Monocytes were first primed with lipopolysaccharides (LPS). Monocytes were allowed to adhere for two hours, after which medium supernatants were discarded. Attached cells were rinsed twice with maintenance medium and incubated in 1 ml of maintenance medium overnight at 37° C. in a 5% CO2 environment. The following morning LPS was added to some walls to achieve a final concentration of 10 ng/ml and the cultures were activated for two hours at 37° C. The media was then removed and 1 ml of fresh medium (RPMI 1640 containing 1% FVS 25 mM HEPES and 5 mM NaHCO3) was added to each well. These LPS-activated monocytes where then treated with ATP and subsequently, monocytes were selectively treated with α-defensins for interleukin-1β post transitional processing and release studies.
Human α-defensin HNP-1 was obtained from Peptide International of Louisville, Ky., U.S.A. Recombinant human α-defensin HD-5 was provided by Dr. Edith Porter of California State University, Los Angeles, U.S.A. The quality of the synthetic peptides were verified by their anti-bacterial activity. Synthetic human α-defensin HNP-1 was further purified by HPLC and compared to the natural HNP-1 by acid-urea PAGE. LPS-activated human monocytes were treated with 0, 1, 10 and 100 micrograms at 37° C. for three hours. It was also treated with 2 mm ATP for IL-1β maturation. Supernatants were then collected after a 5 minute centrifugation in microphage tubes. The concentration of mature IL-1β and the supernatants was quantified by ELISA(R&D Systems). Because the ELISA is reported by the manufacturer to recognize both pro and mature IL-1β species, presence of proIL-1β and mature IL-1β in the supernatant and cell lysates was also determined by western blot analysis. Briefly, proteins were precipitated from the supernatants by addition of trichloroacetic acid (TCA: 7.5% final concentration) and cholic acid (0.1% final concentration) to each sample. The percipate proteins were washed twice with 100% acetone to extract residual TCA and dissolved in 0.1 ml of SDS-PAGE sampled buffer. The cells where then washed once with PBS and lysed into 0.2 ml of lysis washed once with PBS and lysed into 0.2 ml of lysis buffer (25 mM HEPES 300 mM NaCl 1.5 mM MgCl2, 0.2 mM EDTA, 1% triton X-100, 2 mg/ml leupeptin and 10 mg/ml PMF). Cell lysates and TSA precipitated proteins from the supernatants where then subjected to 12% SDS-PAGE gels and then transferred to PVDV membranes for western blot analysis. IL-1β was probed with goat anti-IL-1β antibody and detected with the rabbit anti-goat IgG-horesradish peroxidase conjugate. […]

[2] = test system: IL-1β release from human monocytes; assay: proIL-1β / mature IL-1β release from LPS-activated human monocytes (FIG. 2); conditions: for mature IL-1β in LPS activated cells / proIL-1β in LPS activated cells: overall statement, no concentration given; for LPS-mediated IL-1β release from human monocytes: summary statement
Method: as §1, §2, §3
Human α-defensin HNP-1 was obtained from Peptide International of Louisville, Ky., U.S.A. Recombinant human α-defensin HD-5 was provided by Dr. Edith Porter of California State University, Los Angeles, U.S.A. The quality of the synthetic peptides were verified by their anti-bacterial activity. Synthetic human α-defensin HNP-1 was further purified by HPLC and compared to the natural HNP-1 by acid-urea PAGE. LPS-activated human monocytes were treated with 0, 1, 10 and 100 micrograms at 37° C. for three hours. It was also treated with 2 mm ATP for IL-1β maturation. Supernatants were then collected after a 5 minute centrifugation in microphage tubes. The concentration of mature IL-1β and the supernatants was quantified by ELISA(R&D Systems). Because the ELISA is reported by the manufacturer to recognize both pro and mature IL-1β species, presence of proIL-1β and mature IL-1β in the supernatant and cell lysates was also determined by western blot analysis. Briefly, proteins were precipitated from the supernatants by addition of trichloroacetic acid (TCA: 7.5% final concentration) and cholic acid (0.1% final concentration) to each sample. The percipate proteins were washed twice with 100% acetone to extract residual TCA and dissolved in 0.1 ml of SDS-PAGE sampled buffer. The cells where then washed once with PBS and lysed into 0.2 ml of lysis washed once with PBS and lysed into 0.2 ml of lysis buffer (25 mM HEPES 300 mM NaCl 1.5 mM MgCl2, 0.2 mM EDTA, 1% triton X-100, 2 mg/ml leupeptin and 10 mg/ml PMF). Cell lysates and TSA precipitated proteins from the supernatants where then subjected to 12% SDS-PAGE gels and then transferred to PVDV membranes for western blot analysis. IL-1β was probed with goat anti-IL-1β antibody and detected with the rabbit anti-goat IgG-horesradish peroxidase conjugate.

[3] = test system: IL-1β release from human monocytes; assay: ATP mediated proIL-1β / mature IL-1β release from LPS-activated human monocytes (FIG. 2, FIG. 3)
[4] = test system: IL-1β release from human monocytes
[5] = addition of ATP to the LPS-activated monocyte culture, 35S-methionine label
[6] = FIG. 3 columns 5 and 6, 20 and 100 μg/ml of HD-1, 1 mM ATP, 3 hours
[7] = overall statement, no concentration given
[8] = physiological concentrations of 5 ug to 100 ug/ml
[9] = FIG. 2 column 3, 20 ng/ml LPS + ATP + YVAD-CMK 100 μM
[10] = FIG. 2 column 7, 10 ng/ml LPS 2 hours
[11] = FIG. 2 columns 8 and 9, increase of 20-50 mg HNP-1
[12] = FIG. 3 columns 2-4, 20-100 μg/ml of HNP-1, 1 mM ATP, 3 hours

Compound | mature IL-1β in LPS activated cells [2] | proIL-1β in LPS activated cells [2] | LPS-mediated IL-1β release from human monocytes [2] | processing of proIL-1β after it is released extracellularly [1] | ATP mediated proIL-1β release [1, 7] | ATP mediated proIL-1β release [1, 8] | ATP-mediated IL-1β release from human monocytes [1] | Staphylococcus aureus alpha-toxin-mediated IL-1β release from human monocytes [4] | further results
Nc1ncnc2c1ncn2[C@@H]1O[C@H](COP(=O)(O)OP(=O)(O)OP(=O)(O)O)[C@@H](O)[C@H]1O [ATP, Adenosine triphosphate, reference compound] |  |  |  |  |  |  |  |  | proIL-1β processed to mature IL-1β and detected in the media [1, 5]: more than 90%; release of newly synthesized proIL-1β from the cell [1, 5]: 90%
human α-defensin 5 (ATCYCRTGRCATRESLSGVCEISGRLYRLCCR; ALPHA DEFENSIN HD-5; listed as Homo sapiens) [Recombinant human α-defensin produced by Paneth cells] | substantially completely block | inhibit; also recorded: substantially completely block | blocks | does not appear to affect | blocked in a dose dependant manner; also recorded: block ATP mediated proIL-1β release in a dose dependant manner | blocked ATP mediated proIL-1β release in a dose dependant manner | blocks | blocks | release of proIL-1β from the LPS-activated monocyte culture ([2]; 10 ug/ml of HD-5, FIG. 2): completely blocked; proIL-1β expressed (western blot) ([2]; FIG. 2 columns 4, 5, 6, increasing amount of HD-5, 4 million cell equivalents activated with LPS): no proIL-1β; mature IL-1β from ATP activated human monocytes [3, 6]: inhibited in a dose dependant manner; proIL-1β release from ATP activated human monocytes [3, 6]: no proIL-1β is released
CC(=O)N[C@@H](Cc1ccc(O)cc1)C(=O)N[C@H](C(=O)N[C@@H](C)C(=O)N[C@@H](CC(=O)O)C(=O)CCl)C(C)C [YVAD-CMK, reference compound] |  |  |  |  |  |  |  |  | mature IL-1β produced (western blot) [3, 9]: no mature IL-1β proteins; proIL-1β produced (western blot) [3, 9]: substantial amount of proIL-1β
human neutrophil defensin 1 [HNP-1] | substantially completely block | inhibit; also recorded: substantially completely block | blocks | does not appear to affect | blocked in a dose dependant manner; also recorded: block ATP mediated proIL-1β release in a dose dependant manner | blocked ATP mediated proIL-1β release in a dose dependant manner | blocks | blocks | proIL-1β production ([2]; 20 ug/ml of HNP-1, FIG. 2): sufficient to block; mature IL-1β (western blot) [2, 10]: no mature IL-1β; proIL-1β (western blot) [2, 10]: some proIL-1β; mature IL-1β (western blot) [2, 11]: no mature IL-1β proteins were produced; proIL-1β (western blot) [2, 11]: no proIL-1β; mature IL-1β from ATP activated cells [3, 12]: inhibited in a dose dependant manner; proIL-1β release from ATP activated cells [3, 12]: no proIL-1β is released
